Reference: US20060073154A1 (priority 2001, published 2006)

Legend:
[1] = tested on: streptococcal strain D471 adherence to Detroit 562 pharyngeal cells; format: cell-based, S. pyogenes
[2] = tested on: strain JRS75 adherence to Detroit 562 pharyngeal cells; assay: Pharyngeal cell adherence assay with isogenic M-negative mutant; format: cell-based, S. pyogenes; settings: bacteria preincubated with sialic acid
Description: Pharyngeal cell adherence and invasion assay. Streptococcal adherence to and invasion of the human pharyngeal cell line, Detroit 562, was assayed by modification of a procedure described previously (Talbot, U. M., et al., Infect. Immun. 64:3772-3777, 1996). Overnight cultures of streptococci were pelleted by centrifugation and washed twice in sterile PBS. The cultures were resuspended in MEM and diluted to a final concentration of 5×10^7 CFU/ml, and 1 ml aliquots were inoculated into each well containing washed Detroit cell monolayers. At least 3 wells were used for each bacterial strain or culture condition. Following a 3 h incubation period with the bacteria at 37° C., the monolayers were washed three times in PBS.
For the bacterial invasion assay, 1 ml of MEM supplemented with penicillin (10 μg/ml) and gentamicin (200 μg/ml) was added to each well (to kill extracellular bacteria) and incubated for 1 h at 37° C. […] The total number of adherent streptococci was calculated as the difference between the total number of adherent and invasive bacteria and the number of invasive bacteria alone.
Effect of monosaccharides on streptococcal adherence to pharyngeal cells. The effect of various monosaccharides on streptococcal adherence to pharyngeal cell monolayers was assessed in inhibition assays. […]

CC(=O)N[C@H]1[C@H]([C@H](O)[C@H](O)CO)O[C@@](O[C@H]2[C@@H](O)[C@@H](CO)O[C@@H](O[C@H]3[C@H](O)[C@@H](O)C(O)O[C@@H]3CO)[C@@H]2O)(C(=O)O)C[C@@H]1O (stereo partly drawn) [3′SL, NeuAcα2-3Galβ1-4Glc]
effect on adherence of strain D471 to cultured pharyngeal cells [1]: no significant effect

transferrin: sialylated glycoprotein whose oligosaccharides terminate only in α2-6 linked sialic acid
reduced adherence of strain D471 to cultured pharyngeal cells [1]: approximately 90%

CC(=O)NC1C(O)CC(OCC2OC(OC3C(CO)OC(O)C(O)C3O)C(O)C(O)C2O)(C(=O)O)OC1C(O)C(O)CO (stereo not drawn) [6′SL, NeuACα2-6Galβ1-4Glc]
reduced binding of strain D471 to pharyngeal cells [1]: approximately 85%

CC(=O)N[C@H]1[C@H]([C@H](O)[C@H](O)CO)OC(O)(C(=O)O)C[C@@H]1O (stereo partly drawn) [sialic acid, N-acetylneuraminic acid]
effect on adherence of JRS75 (M-negative mutant) to pharyngeal cells [2]: not affected
effect on adherence of strain D471 to pharyngeal cells [1]: significantly decreased

B1: Fetuin: sialylated glycoprotein containing both α2-3 and α2-6 sialic acid linkages (protein, UniProt P12763 19-359, looked up)
Alpha-2-HS-glycoprotein: IPLDPVAGYKEPACDDPDTEQAALAAVDYINKHLPRGYKHTLNQIDSVKVWPRRPTGEVYDIEIDTLETTCHVLDPTPLANCSVRQQTQHAVEGDCDIHVLKQDGQFSVLFTKCDSSPDSAEDVRKLCPDCPLLAPLNDSRVVHAVEVALATFNAESNGSYLQLVEISRAQFVPLPVSVSVEFAVAATDCIAKEVVDPTKCNLLAEKQYGFCKGSVIQKALGGEDVRVTCTLFQTQPVIPQPQPDGAEAEAPSAVPDAAGPTPSAAGPPVASVVVGPSVVAVPLPLHRAHYDLRHTFSGVASVESSSGEAFHVGKTPIVGQPSIPGGPVRLCPGRIRYFKI
decrease of adherence of strain D471 to pharyngeal cells [1]: approximately 30%
